A short description of series [1]: Water solubility of the powder. The following applies: in words. Type of series: physicochemical.
The test system of series [2] is plasmid DNA damaged by OH° radical (hydrogen peroxide + UVB). Put plainly: "3D" test (Damaged DNA Detection): protection of DNA against OH° radicals. In kind it is biochemical. As to conditions: for Specific protection: OH° radical. Here is the method:
The free-radical-scavenging effects of the phloridzin-rich polyphenolic fractions obtained according to the process of the invention were measured in vitro by the “3D” test (Damaged DNA Detection, Analytical Biochemistry, (1995), pp. 37-42).
The principle is based on repairing DNA lesions, the damaged DNA being used as a marker of protective efficacy of the test molecules with respect to free OH^∘ radicals: the reduction in lesions observed on the DNA is correlated with the trapping of the free radicals.
This test carried out on plasmid DNA allows the detection of genotoxic agents at the early stage of the lesion-mutation-cancerization process. Molecules or mixtures with antioxidant or free-radical-scavenging properties, which can thus protect a human cell from oxidative damage caused by reactive oxygenated species (ROSs), can thus be detected.
The protocol was as follows: • the target DNA was adsorbed onto sensitized wells and then incubated with genotoxic agents in the presence or absence of the polyphenolic extract to be tested (dissolved in an ethanol solution at 2% or in DMSO) or in the presence of catechin (control). In this test, the OH^∘ radical produced by homolytic cleavage of hydrogen peroxide was used as DNA-damaging genotoxic agent. The hydrogen peroxide was added to the wells, which were then irradiated with UVB rays (700 J/m^2). Furthermore, a positive repair control consisting of a plasmid DNA predamaged with ultraviolet C radiation was added; • a step of washing with ultrapure water and then with a dioxane solution at 20% in ultrapure water for 5 minutes at 30° C. with gentle stirring made it possible to remove the non-specific interactions between the sample and the test, due to the presence of macromolecules such as proteins that may interfere with the repair signal; • a repair step was performed in the presence of purified cell extracts (which contain the active enzymes of the various DNA lesion repair pathways) and of biotin-coupled modified nucleotides (dUTP). The repair of the lesions involved a phase of excision of the lesions followed by a resynthesis of the DNA fragment or of excised bases. […] The light signal observed and read on the luminometer was proportional to the amount of lesions repaired.
The percentage of protection observed in the presence of ROSs was calculated as the relative reduction of the lesional effect due to the OH^∘ species, that is to say: % protection={[RLU oxidant−RLU (oxidant+sample)]/RLU oxidant}×100 • where RLU=relative light units (arbitrary units of quantity of light).
The specific percentage of protection was corrected by the percentage of non-specific inhibition measured on the samples predamaged with UVC. It is an indication of the free-radical-scavenging activity due to the only added extracts.
The IC50 is the concentration in mg/ml of test product which gives 50% protective activity against the genotoxic agent OH^∘. The lower the value, the greater the antioxidant activity of the test product.

With `O=C(CCc1ccc(O)cc1)c1c(O)cc(O)cc1O` [phloretin], in series [1], the Water solubility result was “very low solubility”.
For Catechin, the Specific protection in series [2] (concentration 0.016 mg/ml) is given as 16%; in series [2] (concentration 0.06 mg/ml) it was 28%; in series [2] (concentration 0.25 mg/ml) it was 52%; in series [2] (concentration 1 mg/ml), 65%. Also, the IC50 in series [2] (concentration giving 50% protective activity against the genotoxic agent OH°) amounted to 240 µg/mL.
